Results: paper PMC10315697, “Evaluation of ^134Ce/^134La as a PET Imaging Theranostic Pair for ^225Ac α-Radiotherapeutics” (Journal of Nuclear Medicine, 2023)

How the values were obtained:
[1] = set-up: method as in PMID 34190542; settings: for nonradioactive cerium ref 14; cited from earlier work
[2] = Ex vivo biodistribution of free and chelated ^134Ce/^225Ac in healthy mice; settings: healthy wild-type C57BL/6 mice, tail vein injection, 1 h for ^134Ce

Question: Which “stability (KLnL)” value [1] does the source give for `O=C(O)c1cccc(CN2CCOCCOCCN(Cc3cccc(C(=O)O)n3)CCOCCOCC2)n1` [MACROPA] here?
Answer: 15.1

Question: With `[Cl][134Ce]([Cl])[Cl]` [^134CeCl3] as the compound, how does the bone uptake [2] read?
Answer: 15.54 ± 2.69 %ID/g

Question: And the liver uptake [2]?
Answer: 71.5 ± 4.3 %ID/g

Question: What does the source list for `O=C([O-])CN1CCN(CC(=O)[O-])CCN(CC(=O)[O-])CCN(CC(=O)[O-])CC1.[225Ac+3]` [^225Ac-DOTA]?
Answer: blood uptake [2]: 0.23 ± 0.02 %ID/g; bone uptake [2]: 2.26 ± 0.56 %ID/g; kidney uptake [2]: 3.07 ± 0.99 %ID/g; liver uptake [2]: 0.28 ± 0.008 %ID/g

Question: With `[225Ac+3].[Cl-].[Cl-].[Cl-]` [^225AcCl3] as the compound, how does the bone uptake [2] read?
Answer: 29.56 ± 2.40 %ID/g

Question: What about the liver uptake [2] of the same compound?
Answer: 38.33 ± 6.75 %ID/g
